Laboratory results: patent US8158789B2, “Arginine derivatives with NP-I antagonistic activity” (Ark Therapeutics Group Ltd., priority 2006, dated 2012)

Columns and labels:
[1] = target: T1, neuropilin-1 (NP-1) (Homo sapiens, UniProt O14786); assay: 125I-VEGF-A165 binding; conditions: assay not given; 125I-VEGF-A165 binding is the only concentration-response binding method described
T1 construct: expressed in transfected cells; host or cells: porcine aortic endothelial cells (PAE/NP-1), hygromycin B selection
T1 sequence (O14786 22-923): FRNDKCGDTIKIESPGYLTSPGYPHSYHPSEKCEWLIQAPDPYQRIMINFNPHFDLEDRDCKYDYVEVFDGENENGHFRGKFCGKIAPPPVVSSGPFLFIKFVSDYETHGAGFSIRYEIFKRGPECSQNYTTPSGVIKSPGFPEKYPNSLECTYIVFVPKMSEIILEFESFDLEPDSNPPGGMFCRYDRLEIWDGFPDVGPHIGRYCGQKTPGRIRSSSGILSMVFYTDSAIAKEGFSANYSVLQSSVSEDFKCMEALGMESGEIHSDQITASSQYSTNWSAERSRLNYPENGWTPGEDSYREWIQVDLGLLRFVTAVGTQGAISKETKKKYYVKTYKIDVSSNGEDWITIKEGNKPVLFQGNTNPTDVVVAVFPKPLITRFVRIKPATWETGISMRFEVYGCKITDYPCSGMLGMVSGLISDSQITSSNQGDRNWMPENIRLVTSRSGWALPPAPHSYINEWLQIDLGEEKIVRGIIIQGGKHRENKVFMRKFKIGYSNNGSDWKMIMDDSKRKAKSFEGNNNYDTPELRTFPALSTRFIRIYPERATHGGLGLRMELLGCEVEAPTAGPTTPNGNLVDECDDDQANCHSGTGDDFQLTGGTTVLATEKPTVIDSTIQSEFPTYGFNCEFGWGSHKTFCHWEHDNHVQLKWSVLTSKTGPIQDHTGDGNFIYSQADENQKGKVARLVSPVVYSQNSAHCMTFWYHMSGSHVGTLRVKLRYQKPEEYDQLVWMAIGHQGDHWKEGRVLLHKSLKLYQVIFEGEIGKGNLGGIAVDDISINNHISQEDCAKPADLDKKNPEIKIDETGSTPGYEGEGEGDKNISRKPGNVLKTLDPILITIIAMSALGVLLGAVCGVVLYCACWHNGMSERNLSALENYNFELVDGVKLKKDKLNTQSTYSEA
Procedure: Porcine aortic endothelial cells expressing neuropilin-1 (PAE/NP-1) were cultured in Ham's F12 medium containing 10% fetal bovine serum (FBS) and 25 μg/ml hygromycin B. PAE cells expressing KDR (PAE/KDR) were grown in Ham's F12 medium containing 10% FBS and 250 μg/ml […] G418. Human carcinoma cell lines (DU145, A549 and ACHN) were grown in RPMI 1640 medium containing 10% FBS and L-glutamine.
Confluent cells in 24-well plates were washed twice with phosphate-buffered saline (PBS). At 4° C. various concentrations of peptides or peptidomimetics diluted in binding medium (Dulbecco's modified Eagle's medium, 25 mM HEPES pH 7.3 containing 0.1% BSA) were added, followed by addition of 0.1 nM of ^125I-VEGF-A165 (1200-1800 Ci/mmol, GE Healthcare). After 2 h of incubation at 4° C., the medium was aspirated and washed 4 times with cold PBS. The cells were lysed with 0.25 M NaOH, 0.5% SDS solution, and the bound radioactivity of the lysates was measured in a γ counter. Non-specific binding was determined in the presence of 100-fold excess unlabelled VEGF-A165.

[2] = tested on: A549 cells; assay: Cell viability (XTT); format: cell-based, Human; conditions: concentration of 100 μM
Procedure: Human carcinoma cell lines (DU145, A549 and ACHN) were grown in RPMI 1640 medium containing 10% FBS and L-glutamine. Cell Viability Cell viability was determined by measurement of conversion of the tetrazolium salt XTT to form formazon dye. Carcinoma cells were seeded at a density of 4×10^3 cells per well in 96-well plates in the absence or presence of NP-1 peptide or peptidomimetic antagonists. After 44 h incubation, XTT labelling reagent mixture (Roche) was added to the cultures and they were incubated for a further 4 h. The formazon production was then measured at A490 nm with a reference wavelength at 595 nm.

IC50 [1]: < 20 µM
SMILES: N=C(N)NCCC[C@H](NC(=O)c1sccc1NS(=O)(=O)c1cccc2nsnc12)C(=O)O [EG00229, (S)-2-{[3-(Benzo[1,2,5]thiadiazole-4-sulfonylamino)-thiophene-2-carbonyl]-amino}-5-guanidino-pentanoic acid]
viability of A549 cells [2]: reduced the viability
